Test results: paper PMC2669215, “SVOP Is a Nucleotide Binding Protein” (PLoS ONE, 2009)
pIC50: −log10 of the molar value.

How the values were obtained:
SVOP-FLAG [1] = molecular target: T1, SVOP-FLAG (Rattus norvegicus, UniProt Q9Z2I7); assay: competition with 8-azido-ATP[γ] biotin photoaffinity labeling, western blot; format: binding; conditions: read-out: half maximum inhibition concentration
T1 construct: full length (548 residues), C-terminal FLAG tag (DYKDDDK) kept; expressed in HEK293, purified on anti-FLAG M2 gel
T1 sequence (Q9Z2I7 1-548): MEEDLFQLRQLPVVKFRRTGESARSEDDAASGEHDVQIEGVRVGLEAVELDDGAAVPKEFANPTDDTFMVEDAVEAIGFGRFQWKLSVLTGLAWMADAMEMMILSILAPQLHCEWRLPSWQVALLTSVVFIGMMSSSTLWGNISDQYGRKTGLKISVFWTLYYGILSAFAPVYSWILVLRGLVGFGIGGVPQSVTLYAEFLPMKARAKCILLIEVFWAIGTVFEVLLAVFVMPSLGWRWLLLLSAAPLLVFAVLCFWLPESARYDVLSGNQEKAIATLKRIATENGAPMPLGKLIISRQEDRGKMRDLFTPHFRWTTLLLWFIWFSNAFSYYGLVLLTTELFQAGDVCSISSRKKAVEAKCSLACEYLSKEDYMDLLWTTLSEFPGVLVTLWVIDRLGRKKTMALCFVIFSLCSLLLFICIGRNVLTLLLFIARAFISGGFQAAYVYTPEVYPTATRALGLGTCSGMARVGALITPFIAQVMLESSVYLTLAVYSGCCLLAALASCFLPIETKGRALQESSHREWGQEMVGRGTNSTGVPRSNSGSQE

SVOP-FLAG [2] = molecular target: T1, SVOP-FLAG; assay: as above; format: binding; conditions: 100 µM 8-azido-ATP[γ] biotin, pH 7.4, on ice

| Compound | pIC50 (SVOP-FLAG [1]) | decrease of labeling at 1 mM (SVOP-FLAG [2]) |
| --- | --- | --- |
| Nc1ncnc2c1ncn2[C@@H]1O[C@H](COP(=O)(O)OP(=O)(O)OP(=O)(O)O)[C@@H](O)[C@H]1O [ATP] | ~3.12 |  |
| Nc1ccn([C@@H]2O[C@H](COP(=O)(O)OP(=O)(O)OP(=O)(O)O)[C@@H](O)[C@H]2O)c(=O)n1 [CTP] |  | TTP and CTP produced the least inhibition |
| Nc1nc2c(ncn2[C@@H]2O[C@H](COP(=O)(O)OP(=O)(O)OP(=O)(O)O)[C@@H](O)[C@H]2O)c(=O)[nH]1 [GTP] |  | ATP, GTP and NAD displayed the strongest inhibition |
| NC(=O)c1ccc[n+]([C@@H]2O[C@H](COP(=O)(O)OP(=O)(O)OC[C@H]3O[C@@H](n4cnc5c(N)ncnc54)[C@H](O)[C@@H]3O)[C@@H](O)[C@H]2O)c1 [NAD] | ~3.60 |  |
| Cc1cn([C@H]2C[C@H](O)[C@@H](COP(=O)(O)OP(=O)(O)OP(=O)(O)O)O2)c(=O)[nH]c1=O [TTP] |  | TTP and CTP produced the least inhibition |
